Patent US6548543B1, “Remedies or preventives containing cyclopentenone compounds as the active ingredient” (Takara Shuzo Co., Ltd., priority 1998, dated 2003)

Legend:
[1] = tested on: Meth A tumor cells; assay: Survival of mice given Meth A tumor cells, single dose; type: in vivo, BALB/c mouse; settings: single dose 10 mg/kg intraperitoneal
Experimental: (§1) (1) Mouse leukemia P-388 (1.1×10^6 cells/mouse) was intraperitoneally administered to a 7-weeks old female DBA/2 mouse. Immediately after the administration, a single dose of 10 mg/kg dipropionylcyclopentenone was intraperitoneally administered. On the other hand, saline was intraperitoneally administered to a control group in a similar manner. Survival number of mice, average days of survival and prolongation rate were calculated for 2 groups each consisting of 8 mice.
Similarly, examination was carried out using a system of Meth A tumor cells: BALB/c mouse. As a result, the average days of survival were 13.4 days for the control group. The average days of survival were 16.9 days for the group administered with dipropionylcyclopentenone.

[2] = tested on: Mouse leukemia P-388; assay: Survival of mice given mouse leukemia P-388; type: in vivo, DBA/2 mouse; settings: P-388, single dose 10 mg/kg intraperitoneal
Experimental: as §1

[3] = tested on: NK cells; type: in vivo, ddY mice; settings: mice administered intraperitoneally
Experimental: ddY mice (female, 7 weeks old) were purchased from Japan SLC and pre-bred for 1 week before using in experiments.
1×10^6 Ehrlich ascites carcinoma cells were intraperitoneally inoculated to each mouse. 10 mg/kg of cyclopentenone, 30 mg/kg of GM or 10 mg/kg of dipropionylcyclopentenone was intraperitoneally administered to the mouse on the day after the inoculation. Saline was administered to a control mouse.
A spleen was taken out from the mouse 10 days after the inoculation with cancer cells, finely minced and suspended in RPMI-1640 medium containing 10% FCS (HyClone) to obtain a single cell suspension. Adhesive cells adhered to a plastic Petri dish were removed from the cell suspension and non-adhesive cells were used as NK cells.
The NK cells were suspended in RPMI-1640 medium containing 10% FCS at a concentration of 6×10^6/ml. 100 μl/well of the suspension was seeded into a microtiter plate.
Target cells were prepared as follows. 3700 kBq of ^51Cr (Amersham) was added to 1×10^6 YAC-1 cells (Dainippon Pharmaceutical). The cells were cultured at 37° C. for 1 hour for labeling. The labeled cells were washed twice and then suspended in RPMI-1640 medium containing 10% FCS at a concentration of 2×10^5 cells/ml. […] The radioactivity (experimental value) was measured using an auto gamma counter.
100 μl of the culture medium was added to the reaction system in place of the NK cells and the radioactivity was measured in order to measure the radioactivity spontaneously released from the target cells (control value).
Furthermore, the radioactivity released into the supernatant when 1% Triton (Nacalai Tesque) was added to the reaction system to lyse the 51Cr-labeled YAC-1 cells was measured in order to measure the total radioactivity contained in the reaction system (total radioactivity value).
The cytotoxicity (%) specifically mediated by the NK cells can be determined according to the following equation.
Cytotoxicity (%)=[(experimental value−control value)/(total radioactivity value−control value)]×100

[4] = tested on: spleen lymphocytes stimulated with Ehrlich ascites carcinoma cells; assay: Cancer cell-specific proliferation of spleen lymphocytes from treated tumor-bearing mice; type: in vivo, ddY mice; settings: for 3H-thymidine uptake: 10 mg/kg intraperitoneal
Experimental: ddY mice (female, 7 weeks old) were purchased from Japan SLC and pre-bred 1 week before using in experiments.
1×10^6 Ehrlich ascites carcinoma cells were intraperitoneally inoculated to each mouse. 10 mg/kg of cyclopentene, 30 mg/kg of GM or 10 mg/kg of dipropionylcyclopentene was intraperitoneally administered to the mouse on the day after the inoculation. Saline was administered to a control mouse.
A spleen was taken out from the mouse 10 days after the inoculation with cancer cells, finely minced and suspended in RPMI-1640 medium (Gibco) containing 10% FCS (HyClone) to obtain a single cell suspension. Adhesive cells in the cell suspension adhered to a plastic Petri dish were removed and non-adhesive cells were used as spleen lymphocytes.
The spleen lymphocytes were suspended in RPMI-1640 medium containing 10% FCS at a concentration of 2×10^6/ml. 100 μl/well of the suspension was seeded into a microtiter plate.
Stimulated cells were prepared as follows. Mitomycin C (Kyowa Hakko Kogyo) was added to a concentration of 50 μg/ml to Ehrlich ascites carcinoma cells suspended in RPMI-1640 medium at a concentration of 2×10^6 cells/ml. The cells were treated at 37° C. for 30 minutes, washed twice and then suspended in RPMI-1640 medium containing 10% FCS to prepare stimulated cells at a concentration of 2×10^6 cells/ml. 100 μl of the thus prepared stimulated cells was overlaid onto each well of the plate into which 100 μl/well of the spleen lymphocytes had been added. The plate was incubated at 37° C. for 5 days in a 5% CO2 incubator. 37 kBq of ^3H-thymidine (Daiichi Pure Chemicals) was added to the well to pulse-label the cells on the day before the completion of the cultivation. After cultivation, the cells were harvested on a glass filter to measure the radioactivity.

[5] = tested on: Mouse solid tumor Meth A; assay: Mouse solid tumor Meth A, weight of cancer; type: in vivo, BALB/c mouse; settings: subcutaneous at tumor site for successive 5 days, after 2 weeks
Experimental: (2) Mouse solid tumor Meth A (2×10^6 cells/mouse) was subcutaneously injected into a back of a 8-weeks old female BALB/c mouse. Subsequently, dipropionylcyclopentenone was subcutaneously injected at the same site for successive 5 days. Saline was subcutaneously injected to a control group in a similar manner. Each group consisted of 8 mice.
After 2 weeks, the cancerous tissue formed in the back of the mouse was taken out and the weight of the tissue was measured.

[6] = tested on: Ehrlich ascites carcinoma (EAC); assay: Ascitic cancer EAC, prolongation of survival; type: in vivo, ddY mouse; settings: 5 successive days; for 30-day survival number: groups of 8 mice
Experimental: (3) The carcinostatic activities of dipropionylcyclopentenone and diisobutyrylcyclopentenone against various ascitic cancers were examined using two types of cancer cells, Ehrlich ascites carcinoma (EAC) and Meth A, administered intraperitoneally or orally at a varying dose.
Dipropionylcyclopentenone or diisobutyrylcyclopentenone was intraperitoneally or orally administered for 5 successive days from the day after the transplantation with cancer cells. Injectable distilled water was administered to a control group in a similar manner. Average days of survival, prolongation rate and 30-day survival number were calculated for groups each consisting of 8 mice.

CCC(=O)OC1C=CC(=O)C1OC(=O)CC (stereo not drawn)
Average days of survival [1]: 16.9 days | Prolongation rate [1]: 126.2% | Average days of survival [2]: 13.9 days | Prolongation rate [2]: 137.0% | Activation of NK cells (statement) [3]: Activation of NK cells was observed | 3H-thymidine uptake ([4]; no stimulation with cancer cell): 9250 CPM | 3H-thymidine uptake ([4]; stimulation with cancer cell): 20748 CPM | Growth of spleen lymphocytes on stimulation with cancer cells (statement) ([4]; mice administered intraperitoneally): significantly enhanced | Inhibition rate [5]: 92.3% | Mice in which no cancerous tissue was formed [5]: 5 out of 8 | Weight of cancer mean ± SE [5]: 0.05 ± 0.08 g | Weight of cancer mean ± SE ([5]; listed as dipropionylcyclopentenone): 0.05 g | Average days of survival ([6]; intraperitoneal 10 mg/kg): 28.1 days | Prolongation rate ([6]; intraperitoneal 10 mg/kg): >225% | 30-day survival number ([6]; intraperitoneal 10 mg/kg): 6 | Average days of survival ([6]; oral 30 mg/kg): 24.1 days | Prolongation rate ([6]; oral 30 mg/kg): >193% | 30-day survival number ([6]; oral 30 mg/kg): 4
